Reference: patent US10106519B2, “3-phenyl-7-hydroxy-isocoumarins as macrophage migration inhibitory factor (MIF) inhibitors” (The Provost, Fellows, Foundation Scholars, & the Other …, priority 2014, dated 2018)
“Also recorded” adds a separate entry of the source.

Key:
MIF tautomerase = target: T1, MIF tautomerase (Homo sapiens, UniProt P14174); experiment: MIF tautomerase inhibition assay; format: biochemical; conditions: panel of 25 potential inhibitors, 100 μM (FIG. 1, FIG. 3)
T1 construct: host or cells: E. coli BL21
T1 sequence (P14174 2-115 limits assumed): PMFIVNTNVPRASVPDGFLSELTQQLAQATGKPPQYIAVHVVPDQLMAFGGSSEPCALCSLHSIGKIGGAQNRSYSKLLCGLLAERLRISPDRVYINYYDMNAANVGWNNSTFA
Experimental: Human recombinant MIF was purified as per Bernhagen et al. (Biochemistry, 1994. 33(47): p. 14144-55). Briefly, BL21 E. coli cells expressing the pET11b-MIF construct were grown to an absorbance at 600 nm (OD) of […]. Isopropyl 1-thio-P-D-galactopyranoside (IPTG) (Sigma—cat no. 16758) was added to a final concentration of 1 mM to induce expression of the MIF gene and incubated for another 3 hours. Bacteria were then harvested by centrifugation and the cell pellets were then frozen. Protein purification was then out sourced to Scottish Biomedical, where the bacterial pellets were thawed and resuspended in 3 ml of Tris-buffered saline. The bacteria were then lysed by adding an equivalent number of glass beads and vortexing strongly for 10 minutes. Glass beads were removed by centrifugation at 1000 g for 10 minutes and the bacterial extract was centrifuged at 1000 g for a further 30 minutes. The supernatant was then sterile-filtered through a […] membrane filter and put through a MONO Q anion exchange chromatography column. MIF was eluted using Tris-buffered saline in the first flow-through fractions and pooled and placed on ice. These pooled fractions were then applied to a C8-SepPak reverse phase column. Unbound material was eluted by washing with water and 20% acetonitrile/water. MIF was then eluted using 6 column volumes of 60% acetonitrile/water. This sample was then renatured by dissolving MIF at a concentration of […] in 20 mM sodium phosphate buffer containing 8M urea and 5 mM DTT and dialysed against 20 mM sodium phosphate buffer. […]
L-dopachrome methyl ester was prepared at 2.4 mM through oxidation of L-3,4-dihydroxyphenylalanine methyl ester with sodium periodate. The solution was mixed well and placed at room temperature for 5 minutes before being placed on ice in the dark. 100 ng of rMIF was added to each of the Tautomerase Inhibitors or ISO-1 at a number of concentrations (1, 50 and 100 μM) with substrate. The decrease in absorbance was measured with a spectrophotometer at 475 nm every 10 seconds for 10 minutes.
The rate of the reaction of rMIF and substrate alone was measured over time at 475 nm. This was compared to the rate of this reaction with the addition of 100 μM of each of the inhibitors. Inhibition was calculated as the percentage in the reduction of the rate of change with the addition of the inhibitor averaged over five minutes.

[1] = system: Lewis Lung carcinoma cells; experiment: Subcutaneous LLC1 tumour model with in vivo tautomerase inhibitor treatment; set-up: species or system C57BL/6 mice
Experimental: Log phase cultures of LLC-1 cells were harvested by trypsinisation and washed three times with sterile phosphate buffered saline (PBS) and resuspended at a cell density of 5×10^5/ml in PBS. Animals were shaved with an electric shaver 24 hours before subcutaneous injection. 5×10^5 Lewis Lung cells were injected subcutaneously into the left flank of C57BL/6 mice of 6-8 weeks. Animals were monitored for the duration of the experiment and tumour measurements were recorded twice weekly with a digital callipers. Tumour volume (mm^3) was calculated as 0.5×L×W^2, where length is representative of the larger tumour diameter and the width represents the smaller tumour diameter. Animals are sacrificed when tumours reach a diameter of 15 mm or if tumours become ulcerated. Tumours are then removed along with the lungs, spleen and liver.
30 minutes prior to LLC-1 inoculation, inhibitors (TI 19/ISO-1) were administered at a concentration of 35 mg/kg in a volume of 100 μl 5% DMSO in sterile PBS. Control groups were given injections of vehicle 5% DMSO in sterile PBS or sterile PBS alone. Animals were treated twice weekly for four weeks.
In order to assess the antitumour activity of the novel tautomerase inhibitors in vivo, a subcutaneous LLC-1 cell model was set up. The subcutaneous model was chosen so that tumours could be easily visualised and measured during the course of the experiment and to allow assessment of the growth of the tumour in real time. Lewis Lung carcinoma cells (5×10^5) were injected sub-cutaneously into the left flank of C57BL/6 mice. Caliper measurements were taken twice weekly and tumour volume (mm^3) was calculated as 0.5×L×W^2. […] The cut off point for this model was when the tumour measured 15 mm in diameter. This model gave us an indication of normal tumour growth in this subcutaneous model. It can be seen from this model that from day 22 to day 28 the size of the tumour grows considerably.
Once it was determined that the enzymatic activity played a role in the growth of tumours, the subcutaneous LLC model was then used to assess the efficiency of the small weight molecular inhibitors. C57/B16 mice were injected intraperitoneally with 35 mg/kg of each of the inhibitors 30 minutes prior to subcutaneous tumour inoculation and again twice weekly for 4 weeks. Animals were monitored daily and tumour measurements taken until the tumour measured 15 mm in diameter.

Cc1ccccc1-c1cc2ccccc2c(=O)o1 [TI 19]
inhibition of MIF tautomerase enzymatic activity, in words (MIF tautomerase): highest percentage inhibition of MIF enzymatic activity; also recorded: significantly more potent than the commercially available small molecule MIF inhibitor ISO-1 | tumour volume ([1]; 35 mg/kg intraperitoneally 30 min prior to inoculation and twice weekly (FIG. 8)): 116.1±30.41 mm^3 | reduction in tumour size, in words ([1]; 35 mg/kg intraperitoneally, versus untreated or vehicle (DMSO) group (FIG. 8)): significant reduction in tumour size; also recorded: significant reduction in tumour volume | effectiveness in reducing tumour size relative to ISO-1 ([1]; at 28 days): approximately twice as effective
